Data published in patent US20240108632A1, “PHARMACEUTICAL COMPOSITION FOR ADMINISTRATION AS OPHTHALMIC DROP TO PATIENT REQUIRING OPTIC NERVE PROTECTION” (PINOTBIO, INC., priority 2020, published 2024).
In brackets after ≈: the same amount, converted by molar mass.

Legend:
11β-HSD1 = 11β-HSD1 (Homo sapiens, UniProt P28845); conditions: known; cited from earlier work
[1] = Appearance of HP-β-CD solutions of KR-67607 prepared at various pH; type: physicochemical; conditions: solution before entrapment under alkaline conditions; 3% HP-β-CD, 0.15% KR-67607
Description: HP-β-CD aqueous solutions of various pH were prepared by adding 3% (w/v) appropriate amount of HP-β-CD to 0.08M NaOH aqueous solution, tertiary purified water, and 1M HCl aqueous solution. To each of the above different HP-β-CD solutions, 0.15% (w/v) KR-67607 was added and stirred for 1 hour, and then potassium dihydrogen phosphate, sodium chloride, and povidone K90 were mixed to a concentration of 0.68%, 0.435%, and 1.2% (w/v), respectively, to dissolve completely. The pH of the solution was adjusted to around 7.4 with 0.1 N HCl or 0.1 N NaOH aqueous solution, and then the total volume was adjusted by adding sterile purified water. The prepared solution was filtered through a 0.2 μm PVDF filter and evaluated for comparative appearance against a black background, and the results are shown in FIG. 5.

DBA/2 mice = experiment: Retinal electroretinogram in glaucoma mouse model; type: in vivo; conditions: after 8 weeks; right eye only; 0.3 log cd×s/m^2 stimulation; high-dose; transient
Description: […] was performed according to the manufacturer's instructions after mice were anesthetized by instilling 20 μl of paracaine eye drops 0.5% in both eyes. The electrodes were placed on the scalp, tail, and cornea, respectively, and a certain amount of monochromatic white light stimulation was applied to perform retinal electroretinography. The response value of the stimulated retina and the amplitude from the crest of the a-wave to the peak of the b-wave were measured and evaluated as an indicator of retinal function.
To determine the effect of KR-67607 on retinal dysfunction and optic nerve damage, the electroretinograms of mice in the study were measured at 4-week intervals for 16 weeks. The electroretinograms were quantified by analyzing responses obtained by exposing the left and right eyes of the mice to −0.9, 0.3, and 1.2 log cd×s/m^2 of light, respectively. […] Before drug administration, there was no significant difference in retinal electroretinograms between the control, drug, and positive control groups. […] This effect was only transient at week 8, and no significant difference was seen from week 12.

Solubility by pH = type: physicochemical; conditions: stirred 12 hours
Description: 50 mL of pH 1 to 12 solution and tertiary purified water were taken precisely and placed in a 50 mL clear glass vial, and an excess amount (50 mg) of KR-67607 was weighed and added and stirred for 12 hours. Then, it was allowed to stand for 20 minutes to settle the undissolved excess of KR-67607, and the supernatant was taken and filtered through a 0.2 μm PVDF filter as a stock solution.
The standard was prepared by accurately weighing 15 mg of KR-67607, placing it in a 50 mL volumetric flask, using diluent (0.02 M potassium dihydrogen phosphate aqueous solution:acetonitrile=50:50 (v/v)) to completely dissolve/mark KR-67607, and filtering the liquid through a 0.45 μm PVDF filter as the standard.
The HPLC analysis conditions were as follows • Detector: ultraviolet-visible absorption spectrophotometer (measuring wavelength: 254 nm) • Column: 250×4.6 mm, 5μm, C18 packing column • Column temperature: 25±3° C. • Injection volume: 25 μL • Flow rate: 1 mL/min • Mobile Phase: Gradient

[2] = Solubility as a function of HP-β-CD concentration, without pH adjustment (purified water); type: physicochemical; conditions: no pH adjustment
Description: Various concentrations of HP-β-CD aqueous solutions were prepared by adding appropriate amounts of HP-β-CD at 0.5%, 1%, 2%, 3%, 4%, and 5% (w/v) in tertiary purified water. An excess of KR-67607 was added to the above HP-β-CD solution and stirred for 24 hours, then the supernatant was collected, filtered through a 0.2 μm PVDF filter, and 1 mL was added to a 10 mL volumetric flask and labeled with methanol.
The standard was 50 mg of KR-67607 accurately weighed and placed in a 50 mL volumetric flask and completely dissolved/stained with methanol. 1, 2, 4, 6, 8, 10 mL of the standard was accurately taken and placed in a 20 mL volumetric flask, and the one labeled with methanol was used as the standard.
The UV analysis conditions are as follows • Wavelength: 255 nm • Cell: 10 mm Quartz cell
KR-67607 concentration (μg/mL)=(UV absorbance of the sample−y-intercept of the standard curve)/(slope of the standard curve)×dilution factor of the sample. [Formula]

Sequence of 11β-HSD1 (P28845 whole entry, species assumed): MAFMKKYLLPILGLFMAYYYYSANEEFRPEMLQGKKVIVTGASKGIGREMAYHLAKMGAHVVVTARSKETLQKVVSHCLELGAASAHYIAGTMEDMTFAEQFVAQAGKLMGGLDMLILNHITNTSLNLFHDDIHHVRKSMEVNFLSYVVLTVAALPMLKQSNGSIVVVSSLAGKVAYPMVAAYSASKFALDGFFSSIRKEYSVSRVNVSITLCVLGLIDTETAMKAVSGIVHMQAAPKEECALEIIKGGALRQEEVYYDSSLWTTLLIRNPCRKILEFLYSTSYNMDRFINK

## CC1CN(CC(=O)NC2C3CC4CC2CC(C(N)=O)(C4)C3)S(=O)(=O)N(c2c(Cl)cc(C(F)(F)F)cc2Cl)C1 [KR-67607, (1s, 3R,4s,5S,7s)-4-(2-(6-(2,6-dichloro-4-(trifluoromethyl)phenyl)-4-methyl-1,1-dioxido-1,2,6-thiadiazinan-2-yl)acetamido)adamantane-1-carboxamide]
11β-HSD1
  inhibitory activity against 11β-HSD1: good inhibitory activity
[1]
  entrapment ability of HP-β-CD for KR-67607 (appearance, FIG. 5): enhanced
DBA/2 mice
  retinal electroretinograms compared to control group: significant increase
Solubility by pH; Purified water
  Solubility: 18.83 µg/mL (≈ 31.5 µM)
Solubility by pH; pH 1 solution
  Solubility: 47.83 µg/mL (≈ 80.1 µM)
Solubility by pH; pH 3 solution
  Solubility: 46.08 µg/mL (≈ 77.1 µM)
Solubility by pH; pH 5 solution
  Solubility: 42.52 µg/mL (≈ 71.2 µM)
Solubility by pH; pH 6 solution
  Solubility: 43.61 µg/mL (≈ 73 µM)
Solubility by pH; pH 7 solution
  Solubility: 43.77 µg/mL (≈ 73.3 µM)
Solubility by pH; pH 8 solution
  Solubility: 41.95 µg/mL (≈ 70.2 µM)
Solubility by pH; pH 9 solution
  Solubility: 45.97 µg/mL (≈ 76.9 µM)
Solubility by pH; pH 10 solution
  Solubility: 44.53 µg/mL (≈ 74.5 µM)
Solubility by pH; pH 12 solution
  Solubility: 55.32 µg/mL (≈ 92.6 µM)
[2]; HP-β-CD 0.5 % w/v in purified water
  the solubility of KR-67607: 1200 µg/mL
[2]; HP-β-CD 1.0 % w/v in purified water
  the solubility of KR-67607: 2550 µg/mL
[2]; HP-β-CD 2.0 % w/v in purified water
  the solubility of KR-67607: 4230 µg/mL
[2]; HP-β-CD 3.0 % w/v in purified water
  the solubility of KR-67607: 6000 µg/mL
[2]; HP-β-CD 4.0 % w/v in purified water
  the solubility of KR-67607: 6910 µg/mL
[2]; HP-β-CD 5.0 % w/v in purified water
  the solubility of KR-67607: 7250 µg/mL
